The source of these data is ChEMBL document CHEMBL1122678, “Structural correlations of choline acetyltransferase inhibitors: trans-N-(carboxymethyl)-4-(beta-1-naphthylvinyl)pyridinium bromide and cis-N-(2-aminoethyl)-4-(beta-1-naphthylvinyl)-3-methylpyridinium bromide hydrobromide” (J Med Chem, 1984).

Test [1] is described as follows: (§1) Inhibitory activity was determined. Conditions: read-out: I50.
The nature of test [2]: as §1.

For `C(=C\c1cccc2ccccc12)/c1ccncc1`, the IC50 in test [1] is 25 µM.

As for `C(=C\c1cccc2ccccc12)/c1ccncc1` (stereo in doubt; cis) [listing 1 of 2 here], the IC50 in test [1] turned out to be 50 µM.

`C(=C\c1cccc2ccccc12)/c1ccncc1` (stereo in doubt; cis) [listing 2 of 2 here] showed an I23 in test [2] of 400 µM.

With `C(=C\c1cccc2ccccc12)/c1ccncc1` (stereo in doubt; trans), the IC50 in test [1] was 5 µM.
